Among the data in ChEMBL document CHEMBL1201862, “PubChem BioAssay data set” (2004) are IC50, AC50 and CC50 values, retold here.

In test [1] the target is Tyrosine-protein phosphatase non-receptor type 11 (Homo sapiens, UniProt Q06124). Nature of the test: PTPN11 enzyme inhibitors – biochemical, selectivity assay for STEP inhibitor project, dose response (AID 602367). The test is classed as functional. As to conditions: read-out: IC50_Mean.
The target in test [2] is Arf-GAP with SH3 domain, ANK repeat and PH domain-containing protein 1 (Homo sapiens, UniProt Q9ULH1). The test is classed as functional.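 Further: biochemical fluorescence polarization dose–response screen measuring inhibition of ASAP1; ASAP1 GAP domain stimulating GTP hydrolysis by truncated human ARF1.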
Test [3] has as its target Tyrosine-protein phosphatase non-receptor type 5 (Homo sapiens, UniProt P54829). Kind of test: PTPN5 enzyme inhibition – biochemical, fluorescence intensity, uHTS hits, confirmation (AID 602372). The test is classed as functional. As to conditions: read-out: IC50_Mean.
The target of test [4] is Dual specificity protein phosphatase 3 (Homo sapiens, UniProt P51452). Kind of test: VHR phosphatase inhibition, dose response, selectivity assay for STEP inhibitor project, biochemical (AID 602374). The test is classed as functional. To be noted: read-out: IC50_Mean.
Dual specificity protein phosphatase 3, sequence (P51452 whole entry): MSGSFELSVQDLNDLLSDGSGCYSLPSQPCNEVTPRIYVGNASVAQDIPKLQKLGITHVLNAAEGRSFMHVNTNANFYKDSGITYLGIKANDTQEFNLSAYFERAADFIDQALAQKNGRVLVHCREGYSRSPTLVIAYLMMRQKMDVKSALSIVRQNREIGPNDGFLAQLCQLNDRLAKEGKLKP
The target of test [5] is Paired box protein Pax-8 (Homo sapiens, UniProt Q06710). Kind of test: PAX8 transcriptional activity inhibition in RMG-I – RMG-I cells, luciferase, cherry-pick, dose response (AID 687027).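 Further: luciferase reporter driven by Pax8 target thyroperoxidase promoter measured by SteadyGlo luminescence.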 The test is classed as functional, cell-based.
Paired box protein Pax-8, sequence (Q06710 whole entry): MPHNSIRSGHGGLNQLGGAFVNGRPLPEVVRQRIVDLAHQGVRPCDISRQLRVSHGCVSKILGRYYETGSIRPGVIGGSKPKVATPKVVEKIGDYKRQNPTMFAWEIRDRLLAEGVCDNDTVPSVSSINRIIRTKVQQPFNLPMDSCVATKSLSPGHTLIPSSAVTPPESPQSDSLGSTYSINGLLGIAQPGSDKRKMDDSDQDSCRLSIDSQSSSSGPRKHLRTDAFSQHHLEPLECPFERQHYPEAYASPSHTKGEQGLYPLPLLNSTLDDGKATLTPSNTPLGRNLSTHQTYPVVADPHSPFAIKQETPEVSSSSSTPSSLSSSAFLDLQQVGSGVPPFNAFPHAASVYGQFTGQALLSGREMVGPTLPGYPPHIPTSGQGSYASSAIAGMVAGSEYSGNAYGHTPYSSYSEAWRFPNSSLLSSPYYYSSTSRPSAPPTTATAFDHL
The nature of test [6]: general cell-killing toxicity readout – plate reader, dry powder samples, cytotoxicity control for PAX8 inhibitor project, dose response (AID 743021). The test is classed as functional, cell-based.
Test [7] addresses Beta-lactamase (Salmonella choleraesuis (strain SC-B67), UniProt Q5J463). Nature of the test: Epi-absorbance-based counterscreen for selective VIM-2 inhibitors: dose response biochemical high throughput screening assay to identify inhibitors of TEM-1 serine-beta-lactamase. (A counterscreen serves to expose hits that act by an unwanted route or on another target.)
For test [8], the target named is T1, Beta-lactamase (Pseudomonas aeruginosa, UniProt Q79MP6). Kind of test: […] counterscreen for selective VIM-2 inhibitors: dose response biochemical high throughput screening assay to identify inhibitors of IMP-1 metallo-beta-lactamase.
T1 sequence (Q79MP6 whole entry): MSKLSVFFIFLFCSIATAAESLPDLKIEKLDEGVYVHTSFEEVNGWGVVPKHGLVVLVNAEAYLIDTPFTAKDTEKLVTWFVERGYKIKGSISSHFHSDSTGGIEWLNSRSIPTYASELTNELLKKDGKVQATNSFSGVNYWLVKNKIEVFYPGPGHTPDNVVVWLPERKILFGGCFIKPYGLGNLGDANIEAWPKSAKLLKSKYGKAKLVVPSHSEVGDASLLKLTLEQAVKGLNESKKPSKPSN
Test [9] addresses T1, Beta-lactamase. Nature of the test: inhibition of IMP-1 beta-lactamase activity – biochemical, epi-absorbance, selectivity assay for VIM-2 inhibitor project, dose response (AID 1920).
In test [10] the target is Beta-galactosidase (Escherichia coli, UniProt Q8VNN2). Kind of test: Dose response counterscreen for EBI2 assay utilizing the enzyme, b-galactosidase. The test is classed as functional.
Beta-galactosidase, sequence (Q8VNN2 whole entry): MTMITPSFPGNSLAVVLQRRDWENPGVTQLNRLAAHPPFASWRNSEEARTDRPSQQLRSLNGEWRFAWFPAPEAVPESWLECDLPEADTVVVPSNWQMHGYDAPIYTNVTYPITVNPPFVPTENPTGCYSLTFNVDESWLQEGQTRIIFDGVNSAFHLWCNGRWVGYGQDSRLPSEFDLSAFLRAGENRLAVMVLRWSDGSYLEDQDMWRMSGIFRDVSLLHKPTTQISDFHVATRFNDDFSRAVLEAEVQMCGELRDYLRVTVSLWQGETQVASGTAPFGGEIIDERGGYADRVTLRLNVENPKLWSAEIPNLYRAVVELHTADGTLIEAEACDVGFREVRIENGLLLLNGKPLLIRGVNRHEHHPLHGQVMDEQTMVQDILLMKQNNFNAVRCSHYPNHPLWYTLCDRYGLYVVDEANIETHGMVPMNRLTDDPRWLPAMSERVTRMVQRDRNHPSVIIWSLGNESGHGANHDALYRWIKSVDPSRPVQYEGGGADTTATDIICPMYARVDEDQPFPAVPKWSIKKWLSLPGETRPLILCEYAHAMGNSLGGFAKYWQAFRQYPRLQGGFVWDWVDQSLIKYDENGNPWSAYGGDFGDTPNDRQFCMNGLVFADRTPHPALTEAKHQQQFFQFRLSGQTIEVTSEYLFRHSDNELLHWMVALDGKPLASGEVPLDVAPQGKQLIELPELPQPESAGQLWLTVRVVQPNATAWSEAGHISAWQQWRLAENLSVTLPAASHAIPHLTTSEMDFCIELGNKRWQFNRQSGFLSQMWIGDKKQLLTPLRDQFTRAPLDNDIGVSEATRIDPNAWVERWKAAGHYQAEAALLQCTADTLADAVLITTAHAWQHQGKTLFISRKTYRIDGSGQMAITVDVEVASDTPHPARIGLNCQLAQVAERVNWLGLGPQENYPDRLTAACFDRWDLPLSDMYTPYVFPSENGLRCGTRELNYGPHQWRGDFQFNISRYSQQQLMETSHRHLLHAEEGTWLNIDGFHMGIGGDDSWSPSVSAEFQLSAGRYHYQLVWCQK
The nature of test [11]: cells.
Test [12] is described as follows: cells. To be noted: A549.
The target in test [13] is T2, Bcl-2-like protein 10 (Homo sapiens, UniProt Q9HD36).
T2 sequence (Q9HD36 whole entry): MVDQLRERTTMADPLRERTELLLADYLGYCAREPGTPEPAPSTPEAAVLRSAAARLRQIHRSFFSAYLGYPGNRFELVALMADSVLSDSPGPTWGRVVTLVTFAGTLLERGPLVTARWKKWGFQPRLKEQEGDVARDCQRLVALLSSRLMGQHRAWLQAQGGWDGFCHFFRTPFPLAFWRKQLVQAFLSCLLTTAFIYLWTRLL
Kind of test: Bcl-B/TR3 peptide binding disruption – biochemical, fluorescence polarization, FITC-TR3 peptide, selectivity assay for Bfl-1 inhibitor project, primary screen (AID 748).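 Further: fluorescence polarization from a fluorescein-labelled TR3 peptide binding purified Bcl-B.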

Test [14] is described as follows: HEK293 Cytotoxicity Assay Measured in Cell-Based System Using Plate Reader - 7071-01_Inhibitor_Dose_CherryPick_Activity_Set2. The test is classed as functional.
Test [15] deals with HEK293. Kind of test: viability loss in HEK293T cells – cell-based, ATP luminescence, cherry-pick samples, cytotoxicity control, dose response (AID 687005).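 Further: cells exposed to compound for 48 hours.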 The test is classed as functional. As to conditions: Homo sapiens.
Test [16] is described as follows: Counterscreen for inhibitors of Trypanosoma brucei methionyl tRNA synthetase (MetRS): Luminescence-based cell-based high throughput dose response assay to identify compounds that are cytotoxic to Jurkat human T lymphocyte cells. The test is classed as functional.
For test [17], the target named is T3, Methionyl-tRNA synthetase, putative (Trypanosoma brucei brucei, UniProt Q38C91). The test is classed as functional, Trypanosoma brucei brucei strain 927/4 GUTat10.1.
T3 sequence (Q38C91 whole entry): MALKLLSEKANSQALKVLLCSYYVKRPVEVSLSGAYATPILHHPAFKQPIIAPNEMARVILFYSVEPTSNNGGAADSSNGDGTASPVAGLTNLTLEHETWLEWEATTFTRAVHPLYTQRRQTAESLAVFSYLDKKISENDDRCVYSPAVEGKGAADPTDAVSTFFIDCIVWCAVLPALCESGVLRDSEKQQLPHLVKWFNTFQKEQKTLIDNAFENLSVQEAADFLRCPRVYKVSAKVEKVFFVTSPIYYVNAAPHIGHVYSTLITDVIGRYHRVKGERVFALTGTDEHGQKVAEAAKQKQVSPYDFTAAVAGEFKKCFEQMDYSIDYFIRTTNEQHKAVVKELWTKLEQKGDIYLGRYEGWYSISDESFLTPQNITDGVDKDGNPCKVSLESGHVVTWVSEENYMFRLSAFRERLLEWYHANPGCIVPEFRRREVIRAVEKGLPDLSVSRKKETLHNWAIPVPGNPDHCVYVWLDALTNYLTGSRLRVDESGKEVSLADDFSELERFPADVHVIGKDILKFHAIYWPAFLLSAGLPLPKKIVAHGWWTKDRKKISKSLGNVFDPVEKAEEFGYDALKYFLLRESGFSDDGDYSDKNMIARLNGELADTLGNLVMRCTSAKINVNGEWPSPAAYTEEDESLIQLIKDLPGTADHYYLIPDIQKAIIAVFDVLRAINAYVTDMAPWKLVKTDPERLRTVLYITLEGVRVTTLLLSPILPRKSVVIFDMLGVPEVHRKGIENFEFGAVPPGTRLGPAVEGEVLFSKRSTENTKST
Test [18] addresses T3, Methionyl-tRNA synthetase, putative. The test is classed as functional, Trypanosoma brucei brucei strain 927/4 GUTat10.1. This is another data set of the same source.
Test [19] can be described thus: Late stage counterscreen for inhibitors of Trypanosoma brucei methionyl tRNA synthetase (MetRS): Luminescence-based cell-based high throughput dose response assay to identify compounds that are cytotoxic to Jurkat human T lymphocyte cells. The test is classed as functional.
In test [20] the test system is Vero. Kind of test: cells. As to conditions: Chlorocebus sabaeus. The test is classed as functional.
Test [21] concerns the target T4, Rac GTPase-activating protein 1 (Homo sapiens, UniProt Q9H0H5).
T4 sequence (Q9H0H5 whole entry): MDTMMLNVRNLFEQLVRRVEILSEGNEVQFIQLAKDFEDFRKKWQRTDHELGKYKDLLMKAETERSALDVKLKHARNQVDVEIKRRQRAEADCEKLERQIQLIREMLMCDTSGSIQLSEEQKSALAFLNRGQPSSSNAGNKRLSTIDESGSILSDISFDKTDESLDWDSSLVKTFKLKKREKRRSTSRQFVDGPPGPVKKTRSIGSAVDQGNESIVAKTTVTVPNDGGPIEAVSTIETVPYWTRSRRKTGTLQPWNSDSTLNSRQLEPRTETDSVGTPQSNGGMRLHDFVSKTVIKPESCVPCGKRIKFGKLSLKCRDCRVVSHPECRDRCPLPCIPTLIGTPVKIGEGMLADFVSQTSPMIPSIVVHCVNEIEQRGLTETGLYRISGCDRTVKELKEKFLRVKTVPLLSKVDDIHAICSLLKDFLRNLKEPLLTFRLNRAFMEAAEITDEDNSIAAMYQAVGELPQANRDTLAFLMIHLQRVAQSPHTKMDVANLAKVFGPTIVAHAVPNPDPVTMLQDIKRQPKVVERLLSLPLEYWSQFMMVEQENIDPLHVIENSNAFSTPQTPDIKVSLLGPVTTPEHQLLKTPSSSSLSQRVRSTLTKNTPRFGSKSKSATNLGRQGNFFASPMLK
Kind of test: blockers of MgcRacGAP-driven Rac1 GTP hydrolysis – biochemical, ADP Hunter fluorescence, primary and confirmatory, confirmation (AID 624330). The test is classed as functional.

Test [22] has as its target Protein Wnt-3a (Mus musculus, UniProt P27467). Nature of the test: antagonism of Wnt3a pathway luciferase reporter – Wnt-LIGHT cells, luminescence, selectivity assay for Gli-SUFU antagonist project, dose response (AID 651570).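 Further: Wnt-LIGHT reporter cells stimulated with conditioned medium from Wnt3a-producing cells.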 The test is classed as functional. To be noted: read-out: IC50_Mean.
Test [23] deals with INS1. Nature of the test: INS-1E survival protection against cytokine death – cell-based, luminescence, retest, dose response (AID 449756).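 Further: cell death triggered by IL-1 beta plus TNF-alpha plus IFN-gamma mixture; protective hits raise ATP signal compared with cytokine alone wells.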 The test is classed as functional. To be noted: Rattus norvegicus.
For test [24], the target named is Matrix metalloproteinase-14 (Homo sapiens, UniProt P50281). Kind of test: Dose Response confirmation of uHTS hits for a small molecule inhibitors of MT1-MMP activation in a fluorescence assay set 2. The test is classed as functional.
A short description of test [25]: viability loss in HeLa cells – cytotoxicity control for MgcRacGAP inhibitor project, dose response (AID 624300). The test is classed as functional.
In test [26] the target is Large T antigen (Simian virus 40, UniProt P03070). The test is classed as functional, Betapolyomavirus macacae.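 Further: Confirmatory-stage PubChem screen for compounds that inhibit SV40 T antigen.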
Large T antigen, sequence (P03070 whole entry): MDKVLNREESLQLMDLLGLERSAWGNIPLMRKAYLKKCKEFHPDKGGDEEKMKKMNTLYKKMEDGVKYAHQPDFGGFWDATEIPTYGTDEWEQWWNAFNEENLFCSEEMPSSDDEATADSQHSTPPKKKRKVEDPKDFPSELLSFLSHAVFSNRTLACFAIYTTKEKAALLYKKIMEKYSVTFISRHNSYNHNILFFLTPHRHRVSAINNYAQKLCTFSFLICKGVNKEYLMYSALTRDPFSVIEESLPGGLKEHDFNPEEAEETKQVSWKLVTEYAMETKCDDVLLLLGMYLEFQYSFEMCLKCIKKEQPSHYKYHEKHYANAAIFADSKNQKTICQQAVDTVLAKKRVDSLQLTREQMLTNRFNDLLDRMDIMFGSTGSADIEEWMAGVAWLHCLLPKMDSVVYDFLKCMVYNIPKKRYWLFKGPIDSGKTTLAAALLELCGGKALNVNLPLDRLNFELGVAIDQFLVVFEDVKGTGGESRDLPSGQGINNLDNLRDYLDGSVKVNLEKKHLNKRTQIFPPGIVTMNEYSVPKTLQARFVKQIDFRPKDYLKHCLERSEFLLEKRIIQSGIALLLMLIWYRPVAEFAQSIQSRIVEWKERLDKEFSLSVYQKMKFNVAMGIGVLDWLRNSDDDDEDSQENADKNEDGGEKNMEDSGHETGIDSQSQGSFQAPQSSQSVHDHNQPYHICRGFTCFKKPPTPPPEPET

Activity calls are given as the source filed them. Some results are limits rather than exact numbers.

Beta-lactamase (Salmonella choleraesuis (strain SC-B67), UniProt Q5J463), sequence (Q5J463 whole entry): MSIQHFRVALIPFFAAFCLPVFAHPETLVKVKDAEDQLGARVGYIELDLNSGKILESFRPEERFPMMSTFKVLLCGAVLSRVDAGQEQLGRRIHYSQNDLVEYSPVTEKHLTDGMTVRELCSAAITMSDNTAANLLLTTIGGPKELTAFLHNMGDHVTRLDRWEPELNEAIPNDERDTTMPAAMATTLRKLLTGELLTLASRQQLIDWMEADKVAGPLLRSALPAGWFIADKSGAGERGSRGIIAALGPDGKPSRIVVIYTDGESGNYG
Tyrosine-protein phosphatase non-receptor type 11, sequence (Q06124 whole entry, the tested form may be a part): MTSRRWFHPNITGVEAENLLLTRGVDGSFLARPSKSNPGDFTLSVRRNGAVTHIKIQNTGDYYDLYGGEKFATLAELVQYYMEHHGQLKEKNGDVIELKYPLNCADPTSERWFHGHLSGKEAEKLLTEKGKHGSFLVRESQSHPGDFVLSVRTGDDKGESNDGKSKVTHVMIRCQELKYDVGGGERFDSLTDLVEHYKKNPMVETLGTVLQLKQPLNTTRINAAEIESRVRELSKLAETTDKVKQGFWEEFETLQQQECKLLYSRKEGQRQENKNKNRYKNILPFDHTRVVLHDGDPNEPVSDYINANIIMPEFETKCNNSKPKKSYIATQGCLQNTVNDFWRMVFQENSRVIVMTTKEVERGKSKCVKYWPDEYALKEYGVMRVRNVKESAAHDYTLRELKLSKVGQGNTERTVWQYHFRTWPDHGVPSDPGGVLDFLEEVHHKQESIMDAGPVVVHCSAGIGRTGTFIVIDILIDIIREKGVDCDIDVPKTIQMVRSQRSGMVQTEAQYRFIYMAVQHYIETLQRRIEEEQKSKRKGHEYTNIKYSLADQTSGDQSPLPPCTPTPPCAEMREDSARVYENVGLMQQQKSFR
Tyrosine-protein phosphatase non-receptor type 5, sequence (P54829 whole entry): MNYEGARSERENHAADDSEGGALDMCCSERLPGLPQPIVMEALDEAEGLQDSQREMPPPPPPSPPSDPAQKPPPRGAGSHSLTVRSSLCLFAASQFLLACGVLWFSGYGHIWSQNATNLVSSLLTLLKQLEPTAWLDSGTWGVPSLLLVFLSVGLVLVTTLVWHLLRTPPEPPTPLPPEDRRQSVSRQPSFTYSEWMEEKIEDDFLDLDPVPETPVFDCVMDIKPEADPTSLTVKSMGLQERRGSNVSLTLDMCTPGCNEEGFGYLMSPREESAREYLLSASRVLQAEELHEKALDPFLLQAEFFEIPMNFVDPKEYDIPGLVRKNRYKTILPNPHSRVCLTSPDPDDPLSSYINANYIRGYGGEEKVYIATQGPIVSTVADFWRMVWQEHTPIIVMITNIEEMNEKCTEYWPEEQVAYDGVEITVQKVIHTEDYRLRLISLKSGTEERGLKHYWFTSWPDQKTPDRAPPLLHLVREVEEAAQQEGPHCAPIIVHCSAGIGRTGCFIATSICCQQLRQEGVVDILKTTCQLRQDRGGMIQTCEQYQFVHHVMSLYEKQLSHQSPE

As to `NC(=NOC(=O)c1cccc2ccccc12)c1cccc([N+](=O)[O-])c1`, the IC50 was 5.9 µM (active) in test [1], 20.9 µM (inactive) in test [2], 29.7 µM (inactive) in [3] and 5.16 µM (active) in test [4].

In general, AC50 refers to the concentration giving half of the maximal activity seen. For the molecule `CC(C)(C)OC(=O)NCCCC[C@H](NC(=O)c1[nH]cnc1C(=O)Nc1ccc(CNC(=O)OC(C)(C)C)cc1)C(=O)OC(C)(C)C`, the AC50 in [5] was 4.41 µM (active); in test [6] it was 7.72 µM (active).

Consider `Cc1cccc(C(=O)Nc2nnc(SCC(=O)NCc3ccco3)s2)c1`, for which the IC50 in test [7], in [8] and in test [9] was > 59.6 µM (inactive) each time.

On to `O=C(COc1ccc(Cl)cc1)N1CCN(Cc2ccc([N+](=O)[O-])cc2)CC1`, for which the IC50 in test [10] is > 80 µM (inactive).

Consider `Cn1c(=N)c(S(=O)(=O)c2ccccc2)cc2c(=O)n3ccccc3nc21`, for which the AC50 in test [11] is 1.26 µM (active); in test [12] it was > 52 µM (inactive). Besides, the IC50 in test [13] was > 12.5 µM (inactive).

Take `Cc1cccc(C)c1NC(=O)CNC(=O)C(C)N1CCCCC1` (stereo unspecified): the AC50 in test [14] and in test [15] was > 52 µM (inactive) each time.

For orientation: CC50 means the concentration giving 50% cytotoxicity. For `O=C(C[C@H]1C(=O)N(Cc2ccccc2)C[C@@H]1c1ccc(Br)cc1)Nc1ccc(Br)cc1`, the IC50 in [16] was 83.3 µM (inactive); in test [17], 3.46 µM (active); in test [18], 1.78 µM (active); in test [19], 66.5 µM (inactive). The CC50 in [20] is > 25 µM (active).

Turning to `CN1/C(=C\C=N\NC(=O)c2ccc(O)cc2)C(C)(C)c2ccccc21`, the IC50 was 60.3 µM (active) in [21], 15.4 µM (active) in test [22], 31.1 µM (inactive) in test [24] and 20.5 µM (active) in [26]. Further, the AC50 in test [23] is 5.43 µM (active). Moreover, the CC50 in [25] is 100 µM (active).
